The record followed here is ChEMBL document CHEMBL1134352, “Perspectives in animal health: old targets and new opportunities” (J Med Chem, 2001).

For orientation: Inhibition means the percentage by which the read-out fell short of the control. A low value points to a response near the control. Broadly, the LD50 is the dose expected to kill half of the subjects tested. Higher therefore signals lower toxicity. As a reminder, the IC50 is the concentration that inhibits the measured activity by half. Lower therefore signals inhibition by little substance. One may read the bioavailability as the share of a dose that reaches the circulation, judged against a reference dose that is usually intravenous. A low value points to little systemic uptake. A word on the LC50: it is the concentration lethal to half of the exposed cells or organisms.

In brackets after ≈: the same amount, converted by molar mass.

One series concerns Equus caballus. As to the kind of experiment: Compound was evaluated for gastric acid suppression on intravenous administration of a single dose up to 7 hr. The series is classed as functional, Stomach.
Series [1] is described as follows: Lethal dose in mouse was determined. The series is classed as toxicity, organism-based. The conditions noted are these: in vivo.
A short description of series [2]: Lethal dose in dog was determined. The series is classed as toxicity, organism-based, Canis lupus familiaris. The conditions noted are these: in vivo.
The next series concerns Felis catus. The experiment in a line: Percent reduction of fleas on cats by topical application for 1 week. The series is classed as functional.
Series [3] has as its target AF2 neuropeptide receptor. As to the kind of experiment: Compound was evaluated for inhibition of binding to Ascaris suum AF2 neuropeptide receptor.
Series [4] is described as follows: Oral bioavailability in dog. The series is classed as ADME, organism-based, Canis lupus familiaris. The conditions noted are these: in vivo.
The species named for series [5] is Canis familiaris. The experiment in a line: Flea efficacy in dog. The series is classed as functional, Canis lupus familiaris.
A short description of series [6]: Acute toxicity in mice was determined. The series is classed as organism-based. The conditions noted are these: mouse, in vivo.
For series [7], the species on record is Canis familiaris. The experiment in a line: Flea efficacy in dog.
Series [8] is filed under the species Canis familiaris. As to the kind of experiment: Minimum dose that cause toxicity in dog. The series is classed as functional, Canis lupus familiaris.
In series [9] the test system is Canis familiaris. As to the kind of experiment: In vivo reduction of flea infestation was determined after an oral administration of 15 mg/kg in dog challenged with 100 fleas at day 6. The series is classed as functional, Canis lupus familiaris.
Series [10] is described as follows: Lethal concentration of compound was determined against fleas. The conditions noted are these: pulicinae.
The subject of series [11] is Canis familiaris. As to the kind of experiment: In vivo reduction of flea infestation was determined after an oral administration of 15 mg/kg in dog challenged with 100 fleas at day 4. The series is classed as functional, Canis lupus familiaris.
The test system of series [12] is Canis familiaris. The experiment in a line: In vivo reduction of flea infestation was determined after an oral administration of 15 mg/kg in dog challenged with 100 fleas at day 8. The series is classed as functional, Canis lupus familiaris.
The subject of series [13] is Canis familiaris. As to the kind of experiment: In vivo reduction of flea infestation was determined after an oral administration of 15 mg/kg in dog challenged with 100 fleas at day 0. The series is classed as functional, Canis lupus familiaris.
The next series relates to Mus musculus. As to the kind of experiment: Lethality in mouse, by administering the compound at 200 mg/kg; decreased toxicity. The series is classed as functional, organism-based. Details: dose 200 mg/kg.

Take `COc1ccc2[nH]c([S+]([O-])Cc3ncc(C)c(OC)c3C)nc2c1` (configuration not stated) [OMEPRAZOLE]: the Inhibition in the series with Equus caballus is greater than 90%.
Regarding `CN1C(=O)[C@]23CC4CC(C)(C)[C@@]5(C[C@@]41CN2CC[C@@]3(C)O)C(=O)Nc1c5ccc2c1OC=CC(C)(C)O2` (some centres not stated), the median lethal dose (LD50) is less than 15 mg/kg in series [1] and 0.5 mg/kg in [2].
`C/C=C(\C)C(=O)O[C@H]1C[C@@H](OC(C)=O)[C@@]2(C(=O)OC)CO[C@H]3[C@@H](O)[C@@](C)([C@]45O[C@@]4(C)[C@@H]4C[C@H]5O[C@@H]5OC=C[C@@]54O)[C@H]4[C@]1(CO[C@]4(O)C(=O)OC)[C@@H]32` [AZADIRACHTIN A] yielded a Reduction in the series with Felis catus of 53%.
As to `N#Cc1ccnc(-c2nn(-c3c(Cl)cc(C(F)(F)F)cc3Cl)c(=N)s2)c1`, in [3], the IC50 came out at 10 nM.
Turning to `CC(C(=O)O)c1ccc2c(c1)[nH]c1ccc(Cl)cc12` (configuration not stated) [CARPROFEN], the bioavailability in series [4] is roughly 90%.
Compound `C=C(C)[C@H]1C(=O)c2c3c(cc4c5c(n1c24)[C@@]1(C)C(CC[C@H]2[C@](C)(/C=C/C=C(\C)C(=O)N(C)CC)[C@@H](O)CC[C@@]21C)C5)C1=CC(C)(C)OC(C)(C)C1[C@@H]3O` (some centres not stated) came in with an Efficacy in the series filed under Canis familiaris [5] of 0.1 µg/mL.
As for `CO[C@H]1C[C@H](O[C@H]2[C@H](C)O[C@@H](OC3/C(C)=C/CC4C[C@@H](C[C@]5(C=C[C@H](C)[C@@H](C(C)C)O5)O4)OC(=O)[C@@H]4C=C(C)[C@@H](O)[C@H]5OC/C(=C\C=C\[C@@H]3C)[C@]54O)C[C@@H]2OC)O[C@@H](C)[C@@H]1O` (some centres not stated), in series [6], the LD50 stood at 160 mg/kg.
With `N=c1sc(-c2ccccn2)nn1-c1c(Cl)cc(Cl)cc1Cl`, the concentration for half-maximal inhibition (IC50) in [3] was found to be 3000 nM.
In the series filed under Canis familiaris [7], `C=C(C)[C@H]1C(=O)c2c3c(cc4c5c(n1c24)[C@@]1(C)C(CC[C@H]2[C@](C)(/C=C/C=C(\C)C(=O)N4CCN(S(C)(=O)=O)CC4)[C@@H](O)CC[C@@]21C)C5)C1=CC(C)(C)OC(C)(C)C1[C@@H]3O` (some centres not stated) [NODULISPORAMIDE] displayed an Efficacy of 0.01 µg/mL.
Compound `C=C(C)[C@H]1C(=O)c2c3c(cc4c5c(n1c24)[C@@]1(C)C(CC[C@H]2[C@](C)(/C=C/C=C(\C)C(=O)O)[C@@H](O)CC[C@@]21C)C5)C1=CC(C)(C)OC(C)(C)C1[C@@H]3O` (some centres not stated) [NOD ACID A] gave a Dose in the series filed under Canis familiaris [8] of 0.006 mg/kg. In addition, the Efficacy stood at 51% with Canis familiaris [9], 97% in the series on Canis familiaris [11], 0% in the series on Canis familiaris [12] and 99% with Canis familiaris [13]. The compound further displayed an LC50 in [10] of 0.68 µg/mL (≈ 1 µM).
For the compound `CC[C@@]12C(=O)N(C)[C@@]3(CCC(C)(C)[C@]4(CNc5c4ccc4c5OC=CC(C)(C)O4)C3)CN1CC[C@@]2(C)O`, the Lethality result in the series on Mus musculus is “decreased toxicity”.
